We go through two compounds from paper PMC3789257 (Journal of the American Chemical Society, 2012).

Assay [1] addresses p53 mutant Y220C. The following applies: binding to the mutation-induced crevice; cited from earlier work.
Assay [2] concerns p53 mutant Y220C. The following applies: in vitro; cited from earlier work.
The target of assay [3] is T-p53-Y220C (Homo sapiens, UniProt P04637, M133L/N239Y/N268D/V203A/Y220C). The assay can be described thus: 1H/15N-HSQC NMR titration. In kind it is binding. As to conditions: 20 °C, 75 μM protein.
T-p53-Y220C, sequence (P04637 102-292 limits assumed, stated change not applied): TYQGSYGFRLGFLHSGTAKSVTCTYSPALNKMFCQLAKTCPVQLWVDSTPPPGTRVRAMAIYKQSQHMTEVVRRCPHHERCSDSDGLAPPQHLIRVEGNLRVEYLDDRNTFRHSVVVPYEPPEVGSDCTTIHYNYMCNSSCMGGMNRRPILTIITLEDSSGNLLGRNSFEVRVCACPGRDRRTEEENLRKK
In assay [4] the target is T-p53C-Y220C (Homo sapiens, UniProt P04637, M133L/N239Y/N268D/V203A/Y220C). The assay can be described thus: Isothermal titration calorimetry. In kind it is binding.
T-p53C-Y220C, sequence (P04637 102-292 limits assumed, stated change not applied): as the sequence (P04637 102-292 limits assumed, stated change not applied) above

For `CCn1c2ccccc2c2cc(CNC)ccc21` [PhiKan083], the Kd in assay [1] is 150 µM. In assay [2], the “effect on melting temperature of the protein” value is given as “raises the melting temperature”.
As for `CN1CCC(N(C)Cc2cc(I)cc(I)c2O)CC1` [compound 3, 2,4-diiodo-6-((methyl(1-methylpiperidin-4-yl)amino)methyl)phenol], the Kd in assay [3] was determined as 184 ± 23 µM; in assay [4], 225 µM.
